According to patent publication US20260022114A1, “N-(5-SUBSTITUTED-[(1,3,4-THIADIAZOLYL) OR (1,3-THIAZOLYL)](SUBSTITUTED)CARBOXAMIDE COMPOUNDS, PHARMACEUTICAL COMPOSITIONS, AND METHODS OF PREPARING THE AMIDE COMPOUNDS AND OF THEIR USE” (Repare Therapeutics Inc., priority 2022, published 2026):

molecular target: PolQ ATPase enzyme (1-894) (Homo sapiens (Human), UniProt O75417); experiment: Polθ ATPase enzymatic assay (0.5 nM enzyme concentration), ADP-Glo; type: biochemical; details: 0.5 nM PolQ ATPase enzyme (1-894); average IC50
Procedure: PolQ ATPase enzyme (1-894) at 0.5 nM is incubated with a 10-point concentration response of inhibitors for 15 min at rt in the following buffer: 50 mM Tris Cl pH 7.5, 10% glycerol, 5 mM DTT, 10 mM MgCl2, 0.1 mg/ml BSA. Following pre-incubation with inhibitors, DNA (Fork C) at 20 nM and ATP at 100 μM are added to start the reaction. Enzymatic reaction proceeds at rt for 180 min. ATP consumption is measured using the ADP-Glo assay from Promega. Luminescence is read on the Envision and IC50 are determined using the variable slope 4-parameters equation.
Oligos are annealed by heating at 95° C. for 5 min in the following buffer (10 mM Tris-HCl PH7.5, 50 mM NaCl, 1 mM EDTA) and cooled to rt. […]

PolQ ATPase enzyme (1-894), sequence (O75417 1-894): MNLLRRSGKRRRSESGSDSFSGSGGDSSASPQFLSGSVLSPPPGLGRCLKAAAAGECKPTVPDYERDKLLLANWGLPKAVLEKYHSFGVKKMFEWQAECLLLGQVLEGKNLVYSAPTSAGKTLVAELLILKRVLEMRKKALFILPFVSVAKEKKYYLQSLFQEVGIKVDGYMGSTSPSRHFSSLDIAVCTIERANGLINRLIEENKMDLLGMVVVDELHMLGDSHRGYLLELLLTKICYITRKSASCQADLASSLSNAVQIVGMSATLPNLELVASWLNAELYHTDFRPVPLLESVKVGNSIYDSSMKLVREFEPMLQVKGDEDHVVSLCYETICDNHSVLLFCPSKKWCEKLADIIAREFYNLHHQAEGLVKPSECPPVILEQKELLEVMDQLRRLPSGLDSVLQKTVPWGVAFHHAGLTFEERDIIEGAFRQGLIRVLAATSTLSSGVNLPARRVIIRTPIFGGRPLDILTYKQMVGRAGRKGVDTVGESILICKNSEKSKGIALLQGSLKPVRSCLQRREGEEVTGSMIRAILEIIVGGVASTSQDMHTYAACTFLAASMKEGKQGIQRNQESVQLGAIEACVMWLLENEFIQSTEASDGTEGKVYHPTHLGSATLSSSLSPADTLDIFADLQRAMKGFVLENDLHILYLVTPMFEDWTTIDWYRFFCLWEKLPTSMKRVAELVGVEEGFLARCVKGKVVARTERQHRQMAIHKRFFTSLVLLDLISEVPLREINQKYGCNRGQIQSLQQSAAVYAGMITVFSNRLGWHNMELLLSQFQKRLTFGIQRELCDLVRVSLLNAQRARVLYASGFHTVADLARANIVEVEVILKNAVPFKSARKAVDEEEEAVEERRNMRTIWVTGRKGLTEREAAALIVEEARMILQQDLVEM

SMILES | IC50 [nM]
COC(=O)C1CCN(c2cc(-c3cc(C(F)F)ncc3OC)c(C(=O)Nc3nnc(C#CC4CC4)s3)cn2)C(=O)C1 (centres unmarked) [Compound 497] | 0.45
COc1cnc(C(F)F)cc1-c1cc(-n2ccc(C)cc2=O)ncc1C(=O)Nc1nnc(CC(=O)N(C)C)s1 [Compound 603] | 40
COc1cnc(C(F)F)cc1-c1cc(C2CC(C)CCC2=O)ncc1C(=O)Nc1nnc(C#CC2CC2)s1 (racemic) [Compound 389] | < 0.25
COc1cnc(C(F)F)cc1-c1cc(-n2cccc(C)c2=O)ncc1C(=O)Nc1nnc([C@H]2C[C@@H]2C(F)(F)F)s1 [Compound 552] | 0.45
COc1cnc(C(F)F)cc1-c1cc(-n2ccc(C)cc2=O)ncc1C(=O)Nc1nnc([C@H]2C[C@@H]2C(F)(F)F)s1 [Compound 534] | 0.95
COc1cnc(C(F)F)cc1-c1cc(C#CC(C)(C)N2CCOCC2)ncc1C(=O)Nc1nnc(C#CC2CC2)s1 [Compound 528] | 0.44
COc1cnc(C(F)F)cc1-c1cc(-n2cc(C)ccc2=O)ncc1C(=O)Nc1nnc([C@H]2C[C@@H]2C(F)(F)F)s1 [Compound 551] | 0.47
COc1cnc(C(F)F)cc1-c1cc(-c2ccc(C)cc2)ncc1C(=O)Nc1nnc(C#CC2CC2)s1 [Compound 513] | 3.2
COc1cnc(C(F)F)cc1-c1cc(N2CCN(C(=O)C(C)(C)C)C3(CC3)C2=O)ncc1C(=O)Nc1nnc(C#CC2CC2)s1 [Compound 516] | 0.39
COc1cnc(C(F)F)cc1-c1cc(C#CCn2cc(C)cn2)ncc1C(=O)Nc1nnc(C#CC2CC2)s1 [Compound 599] | 21
COCc1nnc(NC(=O)c2cnc(-n3ccc(C)cc3=O)cc2-c2cc(C(F)F)ncc2OC)s1 [Compound 602] | 11
COc1cnc(C(F)F)cc1-c1cc(C#CCCN2CCOCC2)ncc1C(=O)Nc1nnc(C#CC2CC2)s1 [Compound 541] | 0.55
COc1ncc(-c2cc(-c3cc(C(F)F)ncc3OC)c(C(=O)Nc3nnc(C#CC4CC4)s3)cn2)cn1 [Compound 533] | 1.6
C#C[C@H]1CC1c1nnc(NC(=O)c2cnc(N3CCN(C(=O)OC)C4(CC4)C3=O)cc2-c2cc(C(F)F)ncc2OC)s1 (single isomer, unassigned) [Compound 636] | 0.33
[2H]C([2H])([2H])N1CCN(c2cc(-c3cc(C(F)F)ncc3OC)c(C(=O)Nc3nnc(C#CC4CC4)s3)cn2)C(=O)C12CC2 [Compound 503] | < 0.25
COc1cnc(C(F)F)cc1-c1cc(N2CCN(CC#N)C3(CC3)C2=O)ncc1C(=O)Nc1nnc(C#CC2CC2)s1 [Compound 508] | 1.2
COc1cnc(C(F)F)cc1-c1cc(C=C=CN2CCOCC2=O)ncc1C(=O)Nc1nnc(C#CC2CC2)s1 [Compound 543] | 51
COc1cnc(C(F)F)cc1-c1cc(-n2ccc(C)cc2=O)ncc1C(=O)Nc1nnc([C@H]2C[C@@H]2C(C)C)s1 (racemic) [Compound 586] | 1.2
COc1cnc(C(F)F)cc1-c1cc(-n2cccc(C(C)=O)c2=O)ncc1C(=O)Nc1nnc(C#CC2CC2)s1 [Compound 491] | < 0.25
COc1cnc(C(F)F)cc1-c1cc(-n2ccc(C)cc2=O)ncc1C(=O)Nc1nnc(C#CC2CC23CC3)s1 (racemic) [Compound 557] | < 0.25

SMILES | IC50 [nM]
COc1cnc(C(F)F)cc1-c1cc(-n2ccncc2=O)ncc1C(=O)Nc1nnc(C#CC2CC2)s1 [Compound 531] | 0.27
COc1cnc(C(F)F)cc1-c1cc(-n2ccc(C)cc2=O)ncc1C(=O)Nc1nnc(C2CC3(CCC3)C2)s1 [Compound 566] | 2
COc1cnc(C(F)F)cc1-c1cc(-n2cccc(Cl)c2=O)ncc1C(=O)Nc1nnc([C@H]2C[C@@H]2C(F)(F)F)s1 [Compound 607] | 0.95
COc1cnc(C(F)F)cc1-c1cc(C#CC(C)(C)N2CC(C)(C)C2)ncc1C(=O)Nc1nnc(C#CC2CC2)s1 [Compound 560] | 1.15
COc1cnc(C(F)F)cc1-c1cc(C#CCC2CCNC2=O)ncc1C(=O)Nc1nnc(C#CC2CC2)s1 (racemic) [Compound 570] | < 0.25
C#C[C@H]1C[C@@H]1c1nnc(NC(=O)c2cnc(N3CCN(C(=O)OCC)C4(CC4)C3=O)cc2-c2cc(C(F)F)ncc2OC)s1 [Compound 565] | 1.1
COc1cnc(C(F)F)cc1-c1cc(-n2ccc(C3CCN(C)CC3)cc2=O)ncc1C(=O)Nc1nnc(C#CC2CC2)s1 [Compound 536] | 0.96
COc1cnc(C(F)F)cc1-c1cc(C#CCC(C)(C)O)ncc1C(=O)Nc1nnc([C@H]2C[C@@H]2C)s1 (racemic) [Compound 620] | 3.2
COc1cnc(C(F)F)cc1-c1cc(-n2ccc(C3CCOCC3)cc2=O)ncc1C(=O)Nc1nnc(C#CC2CC2)s1 [Compound 506] | < 0.25
C#C[C@H]1C[C@H](c2nnc(NC(=O)c3cnc(-n4ccc(C)cc4=O)cc3-c3cc(C(F)F)ncc3OC)s2)C1 [Compound 595] | 2.9
COc1cnc(C(F)F)cc1-c1cc(C#CC2CCN(C)CC2)ncc1C(=O)Nc1nnc(C#CC2CC2)s1 [Compound 555] | 1
COc1cnc(C(F)F)cc1-c1cc(-n2ccc(C)cc2=O)ncc1C(=O)Nc1nnc(C2C[C@@H]2c2cscn2)s1 (mixture of isomers) [Compound 635] | 0.25
C#C[C@H]1C[C@@H]1c1nnc(NC(=O)c2cnc(-n3cc(C)ccc3=O)cc2-c2cc(C(F)F)ncc2OC)s1 [Compound 546] | < 0.25
Cc1nnc(Cn2cc(-c3cc(C(F)F)ccc3C)c(C(=O)Nc3ncc(C#CC4CC4)s3)cc2=O)o1 [Compound 116] | < 0.25
COCCC#Cc1cc(-c2cc(C(F)F)ncc2OC)c(C(=O)Nc2nnc([C@H]3C[C@@H]3C)s2)cn1 (racemic) [Compound 625] | 0.42
COc1cnc(C(F)F)cc1-c1cc(-n2ccc(C)cc2=O)ncc1C(=O)Nc1nnc([C@H]2C[C@@H]2F)s1 [Compound 544] | 1.9
COc1cnc(C(F)F)cc1-c1cc(-c2ccc(C)nc2OC)ncc1C(=O)Nc1nnc(C#CC2CC2)s1 [Compound 501] | 0.93
COc1cnc(C(F)F)cc1-c1cc(C2C[C@@H]2C(=O)N(C)C)ncc1C(=O)Nc1nnc(C#CC2CC2)s1 (mixture of isomers) [Compound 361] | 1.9
COc1cnc(C(F)F)cc1-c1cc(-n2ccc(N3CCN(C)CC3)cc2=O)ncc1C(=O)Nc1nnc(C#CC2CC2)s1 [Compound 535] | 0.73
COC(=O)c1ccn(-c2cc(-c3cc(C(F)F)ncc3OC)c(C(=O)Nc3nnc(C#CC4CC4)s3)cn2)c(=O)c1 [Compound 496] | < 0.25

SMILES | IC50 [nM]
C#C[C@H]1C[C@@H]1c1nnc(NC(=O)c2cnc(-n3cccc(F)c3=O)cc2-c2cc(C(F)F)ncc2OC)s1 [Compound 562, 2″-(difluoromethyl)-N-(5-((1S,2S)-2-ethynylcyclopropyl)-1,3,4-thiadiazol-2-yl)-3-fluoro-5″-methoxy-2-oxo-2H-[1,2′:4′,4″-terpyridine]-5′-carboxamide] | < 0.25
COc1cnc(C(F)F)cc1-c1cc(-n2ccc(C)cc2=O)ncc1C(=O)Nc1nnc([C@H]2C[C@@H]2c2cncs2)s1 (racemic) [Compound 579] | 0.33
Cn1ccc(C2C=C(c3cc(C(F)(F)F)ncc3Cl)C(C(=O)Nc3ncc(C#CC4CC4)s3)=CC2=O)n1 (centres unmarked) [Compound 479] | 7.4
COc1cnc(C(F)F)cc1-c1cc(-n2ccc(C)cc2=O)ncc1C(=O)Nc1nnc([C@H]2C[C@@H]2C2CC2)s1 (racemic) [Compound 580] | 0.34
Cc1nnc(Cn2cc(-c3cc(C(F)F)ccc3Cl)c(C(=O)Nc3nc(C)c(C#CC4CC4)s3)cc2=O)o1 [Compound 199] | 5.8
C#C[C@H]1CC1c1nnc(NC(=O)c2cnc(-n3ccc(OC)cc3=O)cc2-c2cc(C(F)F)ncc2OC)s1 (single isomer, unassigned) [Compound 629] | 1
C#C[C@H]1C[C@@H]1c1nnc(NC(=O)c2cnc(-n3ccc(CO)cc3=O)cc2-c2cc(C(F)F)ncc2OC)s1 [Compound 571] | < 0.25
COc1cnc(C(F)F)cc1-c1cc(-n2ncc(C)cc2=O)ncc1C(=O)Nc1nnc(C2C[C@@H]2C)s1 (single isomer, unassigned) [Compound 642] | 0.72
COc1cnc(C(F)F)cc1-c1cc(-n2ccc(C#N)cc2=O)ncc1C(=O)Nc1nnc(C#CC2CC2)s1 [Compound 493] | < 0.25
COc1cnc(C(F)F)cc1-c1cc(-c2ccn(C)c(=O)c2)ncc1C(=O)Nc1nnc(C#CC2CC2)s1 [Compound 519] | 12
COc1cnc(C(F)F)cc1-c1cc(-n2ccc(B(O)O)cc2=O)ncc1C(=O)Nc1nnc(C#CC2CC2)s1 [Compound 509] | 1.7
COc1cnc(C(F)F)cc1-c1cc(C#CCN2CCOCC2=O)ncc1C(=O)Nc1nnc(C#CC2CC2)s1 [Compound 542] | 0.29
COc1cnc(C(F)F)cc1-c1nc(-c2nnc(C)o2)ccc1C(=O)Nc1ncc(C#CC2CC2)s1 [Compound 392] | > 100
COc1cnc(C(F)F)cc1-c1cc(C#CCN2CCOCC2)ncc1C(=O)Nc1nnc([C@H]2C[C@@H]2c2cncs2)s1 (racemic) [Compound 640] | 0.54
COc1cnc(C(F)(F)F)nc1-c1cc(CC#N)ccc1C(=O)Nc1nnc(C#CC2CC2)s1 [Compound 482] | 0.73
COc1cnc(C(F)F)cc1-c1cc(C#CCN2CCCC2=O)ncc1C(=O)Nc1nnc([C@H]2C[C@@H]2C)s1 (racemic) [Compound 618] | 0.81
C#C[C@H]1C[C@@H]1c1nnc(NC(=O)c2cnc(C#CCN3CCOCC3)cc2-c2cc(C(F)F)ncc2OC)s1 [Compound 573] | 1
COc1cnc(C(F)F)cc1-c1cc(-n2cccc(C)c2=O)ncc1C(=O)Nc1nnc(C#CC2CCOCC2)s1 [Compound 494] | < 0.25
COc1cnc(C(F)F)cc1-c1cc(-n2ccc(C)cc2=O)ncc1C(=O)Nc1nnc(C2CC2)s1 [Compound 532] | 1.7
